Test results from ChEMBL document CHEMBL3044946, “Glyphosate resistance in perennial ryegrass (Lolium perenne L.) from Argentina” (2012).
Active and inactive are the calls of the source. The rule behind the calls is not given here.

Legend:
Lolium perenne [1] = assay: Resistance index, ratio of LD50 for glyphosate-resistant Lolium perenne (perennial ryegrass) to LD50 for glyphosate-susceptible Lolium perenne (perennial ryegrass) by germination inhibition study; type: functional
Lolium perenne [2] = assay: Herbicidal activity against glyphosate-resistant Lolium perenne (perennial ryegrass) assessed as plant-regrowth at 2880 g ae/ha measured 30 days after compound application; type: functional
Lolium perenne [3] = assay: Herbicidal activity against glyphosate-resistant Lolium perenne (perennial ryegrass) assessed as plant-regrowth at 720 g ae/ha measured 30 days after compound application; type: functional
Lolium perenne [4] = assay: Reduction in chlorophyll content in glyphosate-resistant Lolium perenne (perennial ryegrass) at 1000 to 3000 g ae/ha measured after 10 days post compound application; type: functional, organism-based
Lolium perenne [5] = assay: Induction of shikimate accumulation in leaf lamina of glyphosate-susceptible Lolium perenne (perennial ryegrass) at 1440 g ae/ha measured 72 hr post compound application; type: functional, organism-based
Lolium perenne [6] = assay: Herbicidal activity against glyphosate-resistant Lolium perenne (perennial ryegrass) assessed as plant-regrowth at 1440 g ae/ha measured 30 days after compound application; type: functional
Lolium perenne [7] = assay: Herbicidal activity against glyphosate-resistant Lolium perenne (perennial ryegrass) assessed as inhibition of plant survival measured after 15 days post compound application; type: functional
Lolium perenne [8] = assay: Induction of shikimate accumulation in leaf blade of glyphosate-resistant Lolium perenne (perennial ryegrass) at 1440 g ae/ha measured 24 to 72 hr post compound application; type: functional, organism-based
Lolium perenne [9] = assay: Herbicidal activity against glyphosate-resistant Lolium perenne (perennial ryegrass) assessed as inhibition of germination; type: functional
Lolium perenne [10] = assay: Resistance index, ratio of ED50 for glyphosate-resistant Lolium perenne (perennial ryegrass) to ED50 for glyphosate-susceptible Lolium perenne (perennial ryegrass) by plant survival inhibition study; type: functional
Lolium perenne [11] = assay: Induction of shikimate accumulation in leaf sheath of glyphosate-susceptible Lolium perenne (perennial ryegrass) at 1440 g ae/ha measured 48 hr post compound application; type: functional, organism-based
Lolium perenne [12] = assay: Induction of shikimate accumulation in leaf blades of glyphosate-susceptible Lolium perenne (perennial ryegrass) at 1440 g ae/ha measured 48 hr post compound application; type: functional, organism-based
Lolium perenne [13] = assay: Resistance index, ratio of GR50 for glyphosate-resistant Lolium perenne (perennial ryegrass) to GR50 for glyphosate-susceptible Lolium perenne (perennial ryegrass) by plumule growth inhibition study; type: functional
Lolium perenne [14] = assay: Herbicidal activity against glyphosate-resistant Lolium perenne (perennial ryegrass) assessed as inhibition of plumule growth; type: functional
Lolium perenne [15] = assay: Herbicidal activity against glyphosate-resistant Lolium perenne (perennial ryegrass) assessed as plant-regrowth at 360 g ae/ha measured 30 days after compound application; type: functional
Lolium perenne [16] = assay: Herbicidal activity against glyphosate-susceptible Lolium perenne (perennial ryegrass) assessed as inhibition of plumule growth; type: functional
Lolium perenne [17] = assay: Reduction in chlorophyll content in glyphosate-susceptible Lolium perenne (perennial ryegrass) at 1000 to 3000 g ae/ha measured after 7 to 10 days post compound application; type: functional, organism-based
Lolium perenne [18] = assay: Induction of shikimate accumulation in leaf sheath of glyphosate-resistant Lolium perenne (perennial ryegrass) at 1440 g ae/ha measured 24 to 72 hr post compound application; type: functional, organism-based
Lolium perenne [19] = assay: Herbicidal activity against glyphosate-resistant Lolium perenne (perennial ryegrass) assessed as regrowth level of controlled plants at 2880 g ae/ha measured 30 days after compound application; type: functional
Lolium perenne [20] = assay: Herbicidal activity against glyphosate-susceptible Lolium perenne (perennial ryegrass) assessed as inhibition of germination; type: functional
Lolium perenne [21] = assay: Herbicidal activity against glyphosate-resistant Lolium perenne (perennial ryegrass) assessed as regrowth level of controlled plants at 1440 g ae/ha measured 30 days after compound application; type: functional
Lolium perenne [22] = assay: Induction of shikimate accumulation in leaf lamina of glyphosate-susceptible Lolium perenne (perennial ryegrass) at 1440 g ae/ha measured 24 hr post compound application; type: functional, organism-based
Lolium perenne [23] = assay: Herbicidal activity against glyphosate-resistant Lolium perenne (perennial ryegrass) assessed as regrowth level of controlled plants at 720 g ae/ha measured 30 days after compound application; type: functional
Lolium perenne [24] = assay: Herbicidal activity against glyphosate-resistant Lolium perenne (perennial ryegrass) assessed as regrowth level of controlled plants at 360 g ae/ha measured 30 days after compound application; type: functional
Lolium perenne [25] = assay: Herbicidal activity against glyphosate-susceptible Lolium perenne (perennial ryegrass) assessed as inhibition of plant survival measured after 15 days post compound application; type: functional

## O=C(O)CNCP(=O)(O)O [GLYPHOSATE]
Lolium perenne [1]
  Ratio: 3.2
Lolium perenne [2]
  Activity: 25%
Lolium perenne [3]
  Activity: 17%
Lolium perenne [4]
  Activity: inactive
Lolium perenne [5]
  Activity: Active
Lolium perenne [6]
  Activity: 23%
Lolium perenne [7]
  ED50: 1495 gAe/L
Lolium perenne [8]
  Activity: inactive
Lolium perenne [9]
  LD50: 138 gAe/L
Lolium perenne [10]
  Ratio: 10.8
Lolium perenne [11]
  Activity: Active
Lolium perenne [12]
  Activity: Active
Lolium perenne [13]
  Ratio: 4.4
Lolium perenne [14]
  GR50: 41.5 gAe/L
Lolium perenne [15]
  Activity: 6%
Lolium perenne [16]
  GR50: 9.3 gAe/L
Lolium perenne [17]
  Activity: Active
Lolium perenne [18]
  Activity: inactive
Lolium perenne [19]
  Activity: 33%
Lolium perenne [20]
  LD50: 42 gAe/L
Lolium perenne [21]
  Activity: 43%
Lolium perenne [22]
  Activity: Active
Lolium perenne [23]
  Activity: 48%
Lolium perenne [24]
  Activity: 37%
Lolium perenne [25]
  ED50: 138.1 gAe/L
